Several values for one entry are separate records, joined by “and”; a condition that tells them apart may be missing. Equal values may be shown once.
How the values were obtained:
[1] = biological target: D(2) dopamine receptor (Oryctolagus cuniculus, UniProt G1T1Q0)
[2] = biological target: D(2) dopamine receptor (Rattus norvegicus, UniProt P61169)
D(2) dopamine receptor (Rattus norvegicus, UniProt P61169), sequence (P61169 whole entry): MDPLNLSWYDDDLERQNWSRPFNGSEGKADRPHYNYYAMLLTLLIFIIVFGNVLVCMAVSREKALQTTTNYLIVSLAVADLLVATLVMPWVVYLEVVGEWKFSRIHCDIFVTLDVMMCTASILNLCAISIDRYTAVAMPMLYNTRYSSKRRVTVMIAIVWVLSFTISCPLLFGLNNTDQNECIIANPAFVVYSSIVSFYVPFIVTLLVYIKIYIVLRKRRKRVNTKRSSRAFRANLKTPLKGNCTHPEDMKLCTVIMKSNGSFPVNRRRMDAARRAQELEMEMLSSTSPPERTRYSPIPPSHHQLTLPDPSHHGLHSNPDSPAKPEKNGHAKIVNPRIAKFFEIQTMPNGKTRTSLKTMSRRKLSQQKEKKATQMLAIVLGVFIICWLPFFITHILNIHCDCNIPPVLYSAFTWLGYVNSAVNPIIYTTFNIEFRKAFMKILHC

D(2) dopamine receptor (Oryctolagus cuniculus, UniProt G1T1Q0), sequence (G1T1Q0 whole entry): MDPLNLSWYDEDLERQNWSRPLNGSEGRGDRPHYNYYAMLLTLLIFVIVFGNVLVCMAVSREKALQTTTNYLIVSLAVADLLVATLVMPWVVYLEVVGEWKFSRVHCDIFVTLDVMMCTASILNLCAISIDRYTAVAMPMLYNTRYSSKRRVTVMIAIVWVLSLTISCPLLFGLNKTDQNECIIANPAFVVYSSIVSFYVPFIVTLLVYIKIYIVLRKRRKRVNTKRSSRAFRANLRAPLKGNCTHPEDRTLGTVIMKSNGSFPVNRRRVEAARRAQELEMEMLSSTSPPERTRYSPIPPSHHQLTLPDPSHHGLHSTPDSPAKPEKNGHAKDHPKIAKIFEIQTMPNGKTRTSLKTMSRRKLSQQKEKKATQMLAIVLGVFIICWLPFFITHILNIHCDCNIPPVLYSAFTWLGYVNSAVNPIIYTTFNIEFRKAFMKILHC

Row | SMILES | Ki [1] | Ki [2]
1 | CCCN(CCC)CCc1ccc(O)c(O)c1 | 0.037 µM and 0.085 µM | 0.13 µM
2 | O=c1[nH]c2ccccc2n1CCCN1CCC(n2c(=O)[nH]c3cc(Cl)ccc32)CC1 | 0.0033 µM and 0.0049 µM | –
3 | NCCc1ccc(O)c(O)c1 | 0.25 µM and 0.2 µM | –
4 | O=C(c1ccc(F)cc1)C1CCN(CCn2c(=O)[nH]c3ccccc3c2=O)CC1 [3-(2-{4-[(4-fluorophenyl)carbonyl]piperidin-1-yl}ethyl)-1,2,3,4-tetrahydroquinazoline-2,4-dione] | 0.88 µM | 0.72 µM and 0.58 µM
5 | Nc1nc2c(ncn2[C@@H]2O[C@H](COP(=O)(O)OP(=O)(O)OP(=O)(O)O)[C@@H](O)[C@H]2O)c(=O)[nH]1 [Dopamine+ (GTP+)] | – | 1.3 µM and 2.9 µM
6 | Cc1ccc(N(CC2=NCCN2)c2cccc(O)c2)cc1 [SMR000059054] | 1.2 µM | 1.5 µM and 0.75 µM

From BindingDB's records for PubMed 6655559 (University of California, 1983)
